Like-named read-outs stand apart in the source and are kept apart here.
How the values were obtained:
U251 = assay: NCI-60 SRB screen, CNS cancer; format: cell-based, human; conditions: Homo sapiens, U-251, 48 h
HL-60(TB) = assay: NCI-60 SRB screen, leukemia; format: cell-based, human; conditions: Homo sapiens
IGROV1 = assay: NCI-60 SRB screen, ovarian cancer; format: cell-based, human; conditions: Homo sapiens, IGROV-1, 48 h
HOP-92 = assay: NCI-60 SRB screen, non-small cell lung cancer; format: cell-based, human; conditions: Homo sapiens, HOP-92, 48 h
NCI-H226 = assay: NCI-60 SRB screen, non-small cell lung cancer; format: cell-based; conditions: Homo sapiens, NCI-H226, 48 h
UACC-62 = assay: NCI-60 SRB screen, melanoma; format: cell-based, human; conditions: Homo sapiens, UACC-62, 48 h
OVCAR-5 = assay: NCI-60 SRB screen, ovarian cancer; format: cell-based, human; conditions: Homo sapiens, OVCAR-5, 48 h
MDA-MB-435 = assay: NCI-60 SRB screen, melanoma; format: cell-based, human; conditions: Homo sapiens, MDA-MB-435, 48 h
786-0 = assay: NCI-60 SRB screen, renal cancer; format: cell-based, human; conditions: Homo sapiens, 786-0, 48 h
SW-620 = assay: NCI-60 SRB screen, colon cancer; format: cell-based, human; conditions: Homo sapiens, SW-620, 48 h
HT29 = assay: NCI-60 SRB screen, colon cancer; format: cell-based, human; conditions: Homo sapiens
A498 = assay: NCI-60 SRB screen, renal cancer; format: cell-based, human; conditions: Homo sapiens, A498, 48 h
SR = assay: NCI-60 SRB screen, leukemia; format: cell-based, human; conditions: Homo sapiens, 48 h
HCT-2998 = assay: NCI-60 SRB screen, colon cancer; format: cell-based, human; conditions: Homo sapiens, 48 h
SN12C = assay: NCI-60 SRB screen, renal cancer; format: cell-based, human; conditions: Homo sapiens, 48 h
LOX IMVI = assay: NCI-60 SRB screen, melanoma; format: cell-based, human; conditions: Homo sapiens, 48 h
[1] = tested on: purified bovine brain tubulin; assay: Tubulin polymerization assay (light scattering, BK006 kit); format: biochemical; conditions: compound at 10 μM
Method in brief: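 Compounds tested at 10 µM against vehicle (1% DMSO or EtOH) with bovine brain tubulin, 3 mg/mL, in pH 6.9 PIPES buffer containing 1 mM GTP and 10% glycerol, 37 °C. Light scattering at 340 nm tracked microtubule formation; average of two independent runs reported.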

BT-549 = assay: NCI-60 SRB screen, breast cancer; format: cell-based, human; conditions: Homo sapiens, BT-549, 48 h
[2] = tested on: NCI 60 human cancer cell line panel; assay: NCI 60 cell line screen (SRB), panel values
COLO 205 = assay: NCI-60 SRB screen, colon cancer; format: cell-based, human; conditions: Homo sapiens, COLO 205, 48 h
SNB-19 = assay: NCI-60 SRB screen, CNS cancer; format: cell-based, human; conditions: Homo sapiens, SNB-19, 48 h
A549/ATCC = assay: NCI-60 SRB screen, non-small cell lung cancer; format: cell-based, human; conditions: Homo sapiens, A549, 48 h
EKVX = assay: NCI-60 SRB screen, non-small cell lung cancer; format: cell-based, human; conditions: Homo sapiens, 48 h
HCT-116 = assay: NCI-60 SRB screen, colon cancer; format: cell-based, human; conditions: Homo sapiens, HCT-116, 48 h
HCT-15 = assay: NCI-60 SRB screen, colon cancer; format: cell-based, human; conditions: Homo sapiens, HCT-15, 48 h
ACHN = assay: NCI-60 SRB screen, renal cancer; format: cell-based, human; conditions: Homo sapiens, 48 h
KM12 = assay: NCI-60 SRB screen, colon cancer; format: cell-based, human; conditions: Homo sapiens, KM12, 48 h
CAKI-1 = assay: NCI-60 SRB screen, renal cancer; format: cell-based, human; conditions: Homo sapiens, CAKI-1, 48 h
CCRF-CEM = assay: NCI-60 SRB screen, leukemia; format: cell-based; conditions: Homo sapiens, 48 h

Question: With C=C/C=C/C1C(=O)N(c2cc(OC)c(OC)c(OC)c2)C1c1ccc(OC)c(N)c1 (centres unmarked) [11r, (E)-4-(3-Amino-4-methoxyphenyl)-3-(buta-1,3-dien-1-yl)-1-(3,4,5-trimethoxyphenyl)azetidin-2-one] as the compound, how does the GI50 (U251) read?
Answer: The GI50 was 35.7 nM.

Question: What about the GI50 (HL-60(TB); HL-60(TB), five dose 0.01–100 µM, 48 h) of the same compound?
Answer: The GI50 was 29.5 nM.

Question: What about the GI50 (HL-60(TB); HL-60, NCI screen) of the same compound?
Answer: The GI50 was less than 34 nM.

Question: What about the GI50 (IGROV1) of the same compound?
Answer: Its GI50 is 46.6 nM.

Question: What about the GI50 (HOP-92) of the same compound?
Answer: Its GI50 is 25.3 nM.

Question: And the GI50 (NCI-H226)?
Answer: The GI50 was 56.4 nM.

Question: And the GI50 (UACC-62)?
Answer: The GI50 was 39.6 nM.

Question: And the GI50 (OVCAR-5)?
Answer: The GI50 was 93.7 nM.

Question: And the GI50 (MDA-MB-435)?
Answer: The GI50 was 22.1 nM.

Question: What about the GI50 (786-0) of the same compound?
Answer: Its GI50 is 32.7 nM.

Question: And the GI50 (SW-620)?
Answer: The GI50 was 42.9 nM.

Question: And the IC50 (HT29; HT-29)?
Answer: The IC50 was 34 nM.

Question: What about the GI50 (HT29; HT-29, 48 h) of the same compound?
Answer: Its GI50 is 33.6 nM.

Question: What about the GI50 (A498) of the same compound?
Answer: Its GI50 is 22.3 nM.

Question: And the GI50 (SR)?
Answer: The GI50 was 33.5 nM.

Question: And the GI50 (HCT-2998)?
Answer: The GI50 was 27 nM.

Question: What about the GI50 (SN12C) of the same compound?
Answer: Its GI50 is 59.1 nM.

Question: What about the GI50 (LOX IMVI) of the same compound?
Answer: The GI50 was 34.4 nM.

Question: What about the Vmax ([1]; 37 °C, 340 nm) of the same compound?
Answer: Its Vmax is 0.0035 mOD/min.

Question: What about the “Fold Reduction in Vmax” value ([1]; relative to vehicle) of the same compound?
Answer: Its value is 2.0.

Question: And the GI50 (BT-549)?
Answer: Its GI50 is 25.3 nM.

Question: What about the GI50 ([2]; Homo sapiens, 60 cell, read-out: Mean GI50, mean over all NCI 60 cell lines) of the same compound?
Answer: The GI50 was less than 91.2 nM.

Question: And the CC50 ([2]; Homo sapiens, 60 cell, read-out: Mean LC50)?
Answer: The CC50 was 77600 nM.

Question: And the IC (TGI (total growth inhibition)) ([2]; Homo sapiens, 60 cell, read-out: Mean TGI)?
Answer: The IC (TGI (total growth inhibition)) was 38000 nM.

Question: What about the GI50 ([2]; read-out: Mean GI50, mean over all NCI 60 cell lines) of the same compound?
Answer: The GI50 was 91.2 nM.

Question: And the GI50 (COLO 205)?
Answer: The GI50 was 23.1 nM.

Question: And the GI50 (SNB-19)?
Answer: The GI50 was 64.9 nM.

Question: What about the GI50 (A549/ATCC) of the same compound?
Answer: The GI50 was 38 nM.

Question: And the GI50 (EKVX)?
Answer: Its GI50 is 88 nM.

Question: What about the GI50 (HCT-116) of the same compound?
Answer: Its GI50 is 27.2 nM.

Question: What about the GI50 (HCT-15) of the same compound?
Answer: The GI50 was 37 nM.

Question: What about the GI50 (ACHN) of the same compound?
Answer: Its GI50 is 61.4 nM.

Question: What about the GI50 (KM12) of the same compound?
Answer: The GI50 was 33.1 nM.

Question: What about the GI50 (CAKI-1) of the same compound?
Answer: Its GI50 is 63.1 nM.

Question: And the GI50 (CCRF-CEM)?
Answer: The GI50 was 36.5 nM.
